The values below come from US5821247A, “Hydroquinone derivative and pharmaceutical use thereof” (Japan Energy Corporation, priority 1996, dated 1998).

Molecules are shown by their SMILES.

A short description of series [1]: Metabolite found in plasma after oral administration of the compound of Example 1. It is filed as in vivo. The following applies: compound of Example 1 orally administered to guinea pig. From the text: The title compound was obtained by repeating substantially the same procedure as Example 1, except using 4-(3,5,6-trimethyl-1,4-benzoquinon-2-yl)-2-hydroxy-2-methylbutyric acid which had been prepared by oxidation of 6-hydroxy-2,5,7,8-tetramethylchroman-2-carboxylic acid with ammonium cerium (IV) nitrate (yield 62%).

The subject of series [2] is picryl chloride-induced dermatitis. Nature of the series: Inhibition of picryl chloride-induced dermatitis (type IV allergic inflammation model, ear swelling, Asherson's method). It is filed as in vivo, ICR male mice. The conditions noted are these: applied on ear just after challenge, ear thickness at 24 h. How it is done:
Evaluation 1: Inhibition of picryl chloride-induced dermatitis
Effect of the compounds of the present invention on picryl chloride-induceddermatitis, which is a typical model of type IV allergic inflammation, was estimated by the Asherson's method [Immunology, 15, 405 (1968)] in the following manner.
A 7% (w/v) solution of picryl chloride in acetone (0.1 mL) was applied on a portion of the abdominal skin of each of ICR male mice to sensitize the mice. After 7 days, a 1% (w/v) solution of picryl chloride in acetone (0.02 mL) was applied on the ears of the individual mice to induce allergic reaction. Just after the challenge, 0.04 mL of acetone (control) or a 0.25-2.5% (w/v) solution of the test compound in acetone was applied on the ear. Increase of the ear thickness of the individual mice was measured at 24 h after the challenge, and inhibitory effect of the test compound on the dermatitis was estimated based on the difference in ear thickness between before and after the induction of the allergic reaction.

A further series has as its system albumin-induced asthma. Nature of the series: Inhibition of albumin-induced asthma (air way resistance, double flow plethysmography). In kind it is in vivo, Hartley male guinea pigs. The following applies: 100 mg/kg, orally 1 h before and 3 h after the challenge. The method, then: Evaluation 2: Inhibition of albumin-induced asthma
Effect of the compounds of the present invention on albumin-induced asthma was estimated in the following manner.
Inhalation of 1% ovalbumin using ultrasonic nebulizer into Hartley male guinea pigs was performed 10 min/day over 8 days to sensitize the guinea pigs. One week after the last sensitization, inhalation of 2% ovalbumin was performed for 5 min. to induce allergic reaction. Metyrapone (10 mg/kg, i.v.) was administered at 24 h and 1 h before the challenge, propylene glycol (control) or a solution of the test compound in propylene glycol was orally administered at 1 h before and 3 h after the challenge, and pyrilamine (10 mg/kg, i.p.) was intraperitoneally administered at 30 min before the challenge. Air way resistance was measured by double flow plethysmography at 1 min, 4 h, 5 h, 6 h, 7 h, and 8 h after the challenge, and inhibitory effect of the test compound on the asthma was estimated based on the measurements obtained.

The mark [3] stands for this setting: concentration 0.75% (w/v) in acetone.
The mark [4] stands for this setting: concentration 0.25% (w/v) in acetone.

Consider `CC1=C(C)C(=O)C(CCC(C)(O)C(=O)Nc2c(N)n(-c3ccccc3)c(=O)n(C)c2=O)=C(C)C1=O` (stereo not drawn) [Example 15, 6-Amino-3-methyl-1-phenyl-5-[4-(3,5,6-trimethyl-1,4-benzoquinon-2-yl)-2-hydroxy-2-methylbutyramido]-2,4 (1H, 3H)-pyrimidinedione], for which the “found in plasma as metabolite of the compound of Example 1” value in series [1] is “found in plasma a guinea pig as one of metabolites”. The “Inhibition (%) of picryl chloride-induced dermatitis” value (“Inhibition (%)” for short) in series [2] (setting [3]) was 70%.
Turning to `CC(=O)Oc1c(C)c(C)c2c(c1C)CCC(C)(C(=O)Nc1c(N)n(-c3ccccc3)c(=O)n(C)c1=O)O2` (stereo not drawn) [Example 14, 5-(6-Acetoxy-2.5,7,8-tetramethvlchroman-2-carboxamido)-6-amino-3-methyl-1-phenyl-2,4 (1H, 3H)-pyrimidinedione], the “Inhibition (%)” value in series [2] (setting [3]) is on record as 53%.
In the case of `Cc1c(C)c2c(c(C)c1O)CCC(C)(CNc1c(N)n(-c3ccccc3)c(=O)n(C)c1=O)O2` (stereo not drawn) [Example 17, 6-Amino-5-[(6-hydroxy-2,5,7,8-tetramethyl-2-chromanylmethyl)amino]-3-methyl-1-phenyl-2,4 (1H, 3H) -pyrimidinedione], in series [2] (setting [3]), the “Inhibition (%)” value is on record as 80%.
Turning to `CCCCN(Cc1c(N)n(-c2ccccc2)c(=O)n(C)c1=O)C(=O)C1(C)CCc2c(C)c(O)c(C)c(C)c2O1` (stereo not drawn) [Example 19, 6-Amino-5-(N-butyl-6-hydroxy-2,5,7,8-tetramethylchroman-2-carboxamidomethyl)-3-methyl-1-phenyl-2,4 (1H, 3H)-pyrimidinedione], the “Inhibition (%)” value in series [2] (setting [4]) is reported as 49%.
In the case of `Cc1c(C)c2c(c(C)c1O)CC[C@](C)(C(=O)Nc1c(N)n(-c3ccccc3)c(=O)n(C)c1=O)O2` [Example 2], the “Inhibition (%)” value in series [2] (setting [3]) is listed as 65%.
For `Cc1c(C)c2c(c(C)c1O)CCC(C)(C(=O)Nc1c(N)n(-c3ccccc3)c(=O)n(C)c1=O)O2` (stereo not drawn) [Example 1, 6-Amino-5-(6-hydroxy-2,5,7,8-tetramethvlchroman-2-carboxamido)-3-methyl-1-phenyl-2,4 (1H. 3H)-pyrimidinedione], the “Inhibition (%)” value in series [2] (setting [4]) is listed as 69%. Further, the “inhibition on the air way reaction at 1 min after the challenge” value with albumin-induced asthma (1 min after the challenge) came out at 62%. For the same molecule, the “inhibition on the air way reaction (AUC) during 4-8 h after the challenge” value in the series with albumin-induced asthma (AUC 4-8 h) is recorded as 50%.
For `Cc1c(C)c2c(c(C)c1O)CC[C@@](C)(C(=O)Nc1c(N)n(-c3ccccc3)c(=O)n(C)c1=O)O2` [Example 3, 6-Amino-5-(6-hydroxy-2,5,7,8-tetramethylchroman-2(S)-carboxamido)-3-methyl-1-phenyl-2,4 (1H, 3H) -pyrimidinedione], the “Inhibition (%)” value in series [2] (setting [3]) is 69%.
As to `COc1c(C)c(C)c2c(c1C)CCC(C)(C(=O)Nc1c(N)n(-c3ccccc3)c(=O)n(C)c1=O)O2` (stereo not drawn) [Example 13, 6-Amino-5-(6-methoxy-2,5.7,8-tetramethylchroman-2-carboxamido)-3-methyl-1-phenyl-2,4 (1H, 3H)-pyrimidinedione], the “Inhibition (%)” value in series [2] (concentration 2.50% (w/v) in acetone) is listed as 33%.
Consider `CNc1c(NC(=O)C2(C)CCc3c(C)c(O)c(C)c(C)c3O2)c(=O)n(C)c(=O)n1-c1ccccc1` (stereo not drawn) [Example 11, 5-(6-Hydroxy-2,5,7,8-tetramethvlchroman-2-carboxamido)-3-methyl-6-methylamino-1-phenyl-2,4 (1H, 3H) -pyrimidinedione], for which the “Inhibition (%)” value in series [2] (setting [3]) is on record as 44%.
